This is an account of results in BindingDB's records for doi:10.1016/j.bmc.2018.06.012 (Astellas Pharma, 2018).

The assay is described as follows: Inhibition of PI3Kdelta in Balb/c mouse splenocytes-derived B cells assessed as reduction in anti-IgM antibody-stimulated B cell proliferation after 2 days alamar blue assay. On the technique in general: Resazurin is reduced to fluorescent resorufin, in cell work by metabolically active cells.
What is called IC50 is the point on the concentration scale where inhibition reaches its midpoint. With `COc1ncc(-c2cc(OC[C@@H]3CCCN(CC4CCOCC4)C3)c3cnn(C)c3n2)cc1NS(C)(=O)=O`, the IC50 was found to be 0.29 nM.
For `COc1ncc(-c2cc(OC[C@@H]3CCCN(C(=O)C4CCOCC4)C3)c3cnn(C)c3n2)cc1NS(C)(=O)=O` the value was 1.4 nM; for `COc1ncc(-c2cc(O[C@@H]3CCN(C(=O)C4CCOCC4)C3)c3cnn(C)c3n2)cc1NS(C)(=O)=O`, 2.6 nM.
For `COc1ncc(-c2cc(O[C@@H]3CCN(Cc4c(C)nn(C)c4C)C3)c3cnn(C)c3n2)cc1NS(C)(=O)=O` the value was 2.1 nM; for `COc1ncc(-c2cc(OC[C@@H]3CCCN(C(=O)CC4CCOC4)C3)c3cnn(C)c3n2)cc1NS(C)(=O)=O` (some centres not stated), 2.9 nM.
For `COc1ncc(-c2cc(OC[C@@H]3CCCN(C(=O)C4CCN(C(C)=O)CC4)C3)c3cnn(C)c3n2)cc1NS(C)(=O)=O` the value was 4.3 nM.
For the compound `COc1ncc(-c2cc(OC[C@@H]3CCCN(CC4(C)COC4)C3)c3cnn(C)c3n2)cc1NS(C)(=O)=O`, the IC50 turned out to be 1.5 nM.
With `COc1ncc(-c2cc(OC[C@@H]3CCCN(CCC4CCOCC4)C3)c3cnn(C)c3n2)cc1NS(C)(=O)=O`, the IC50 amounted to 0.41 nM.
On to `COc1ncc(-c2cc(OC[C@@H]3CCCN(Cc4c(C)nn(C)c4C)C3)c3cnn(C)c3n2)cc1NS(C)(=O)=O`, for which the IC50 came to 1.5 nM.
For `COc1ncc(-c2cc(OC[C@H]3CCCN(C(=O)C4CCOCC4)C3)c3cnn(C)c3n2)cc1NS(C)(=O)=O` the value was 7.8 nM.
Regarding `COc1ncc(-c2cc(OC3CN(C(=O)C4CCOCC4)C3)c3cnn(C)c3n2)cc1NS(C)(=O)=O`, the IC50 is 20 nM.
For `COc1ncc(-c2cc(OC[C@@H]3CCCN(Cc4cn(C)nc4C)C3)c3cnn(C)c3n2)cc1NS(C)(=O)=O` the value was 4.8 nM.
